Data set [1] concerns HAP1 cells. Description: Small molecule inhibition of glutaminyl cyclase: anti-CD47 clone CC2C6 binding, flow cytometry. The format is cell-based, human. As to the method:
(§1) Surface levels of CD47 were assessed by performing immunohistochemical staining cells with fluorochrome labelled antibodies directed against CD47 (clones CC2C6, 2D3, B6H12., see Table 1) at a dilution of 1:50 in PBS containing 0.5% w/v BSA (Sigma) and 0.2% w/v sodium azide (Sigma) (“FACS buffer”) for 30 minutes, at 4° C., protected from light. SIRPα binding to CD47 was assessed by incubating cells with recombinant extracellular domain of human SIRPα fused to human IgG ((SIRPα-Fc); Recombinant Human SIRP alpha/CD172a Fc Chimera Protein see Table 1) at a dilution of 1:50 in FACS buffer for 30 minutes, at 4° C., protected from light. After 1 wash with FACS buffer to remove unbound SIRPα-Fc, cells were immunostained with a fluorochrome labelled antibody against human IgG (HP6017, see Table 1) for 30 minutes, at 4° C., protected from light. After 2 washes with FACS buffer to remove unbound antibody, immunohistochemical staining intensity or binding intensity was analyzed on an LSRII (BD Bioscience).
Background: Flow cytometry measures light scatter and fluorescence of single cells or particles in a stream.

Data set [2] has as its system HAP1, RKO, A375, A549 and DLD1 cells. Particulars: PBD150 1000 microM, 72 hours, medium refreshed every 24 hours. As to the method: as §1
Next, HAP1, RKO, A375, A549 and DLD1 cells were treated for 72 hours with PBD150 (1000 microM) or vehicle and medium was refreshed every 24 hours.

The target of data set [3] is human QPCTL (Homo sapiens, UniProt Q9NXS2). The settings on record: cited from earlier work.
human QPCTL, sequence (Q9NXS2 whole entry): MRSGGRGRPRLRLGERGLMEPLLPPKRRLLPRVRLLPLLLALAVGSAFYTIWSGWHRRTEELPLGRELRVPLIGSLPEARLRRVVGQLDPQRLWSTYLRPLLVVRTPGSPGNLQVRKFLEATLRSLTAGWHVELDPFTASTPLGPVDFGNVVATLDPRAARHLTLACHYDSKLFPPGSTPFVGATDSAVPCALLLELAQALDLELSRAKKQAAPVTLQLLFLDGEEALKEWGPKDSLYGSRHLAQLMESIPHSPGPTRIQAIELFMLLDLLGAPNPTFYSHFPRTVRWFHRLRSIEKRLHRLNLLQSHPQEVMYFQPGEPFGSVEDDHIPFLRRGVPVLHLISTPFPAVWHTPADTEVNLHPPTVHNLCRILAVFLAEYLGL
The conditions of data set [4]: Phase 1 study with 200 healthy young and elderly volunteers; cited from earlier work.
The subject of data set [5] is QPCT and QPCTL. The settings on record: Phase 1 study with 200 healthy young and elderly volunteers; cited from earlier work.
For data set [6], the system named is Ba/F3-Her2 cells. Description: ADCC of 51Cr-labeled Ba/F3-Her2 target cells by human effector cells. The format is cell-based, murine. Particulars: human neutrophils, with anti-Her2, 10 μM SEN177, 4 h 51Cr-release. As to the method: (§2) Briefly, 1×10^6 target cells were labelled with 100 μCi (3.7 MBq) ^51Cr for 2 h. After extensive washing, cell numbers were adjusted to 1×10^6/mL. The polymorphonuclear leukocyte (PMN) fraction from peripheral blood of healthy donors (UMC Utrecht, Utrecht) was isolated by Ficoll/Histopaque separation (GE Healthcare; Sigma-Aldrich). Effector cells and target cells were added to round-bottom microtiter plates (Corning Incorporated) (E:T ratio=40:1), in the presence of the indicated concentration of a Her2 antibody. After 4 h incubation at 37° C., ^51Cr release was measured. Percentage specific lysis was calculated using the following formula: ((experimental cpm—basal cpm)/(maximal cpm—basal cpm))×100, with maximal lysis determined in the presence of 3% triton and basal lysis determined in the absence of antibody and effector cells. […] All experiments were performed in triplicate.

For data set [7], the system named is short-term cultures of melanoma xenografts. Description: SEN177 treatment of short-term melanoma PDX cell lines, FACS binding. Particulars: 10 μM SEN177 for 4 days, six cultures. The format is cell-based, human. From the text:
Cell lines: Short-term cell lines from primary melanoma patient-derived xenografts (PDX) were generated as described (Kemper et al., EMBO Mol. Med. 7, 1104-1118, 2015) and were a gift from D. Peeper and K. Kemper. […]

Data set [8] has as its system Ba/F3-Her2 cells. Description: ADCC of 51Cr-labeled Ba/F3-Her2 target cells by mouse effector cells. The format is cell-based. The settings on record: murine immune cells isolated from whole blood as effector cells, anti-Her2 IgA1. As to the method:
as §2
In brief, to obtain mouse effector cells, blood was collected from pegylated granulocyte colony-stimulating factor (G-CSF)-stimulated human FcaRl transgenic Balb/c mice from the retro-orbital plexus into Li-heparin tubes. Erythrocytes were lysed by incubation in water for […], and total leukocytes were resuspended in medium (half the volume of the original blood volume). 50 μL of total leukocytes, containing ˜70% PMNs, were added per well.

Data set [9] concerns A375, A431, Raji, A549, DLD1, HAP1, RKO and SKBR3 cells. Briefly: SEN177 and PQ912 treatment, cell surface binding of hSIRPα-Fc and anti-CD47 antibodies, flow cytometry. The format is cell-based, human. More on the design: dose or concentration left out as unconfirmed. The settings on record: refreshed every day, four days. As to the method:
(§3) After indicated antibody stainings, cells were washed with FACS buffer to remove unbound antibody and DAPI was added to allow dead cell exclusion and samples were analyzed on an LSRII or LSRFortessa (BD Bioscience).
(§4) DMSO or inhibitor was refreshed every day and after four days, cells were analyzed by flow cytometry.

Data set [10] has as its system B16F10 melanoma cells and Ba/F3-Her2 pro-B cells. Description: SEN177 treatment of murine cells, mSIRPα-Fc and αmCD47-MIAP301 binding, flow cytometry. The settings on record: SEN177, both cell lines. The format is cell-based. As to the method: as §3, §4
In data set [11] the test system is QPCTL-deficient lung cancer (A549) and epidermoid carcinoma (A431) cells. Description: SEN177 treatment of QPCTL-deficient cells, SIRPα binding by flow cytometry. The format is cell-based, human. As to the method: as §3, §4
Data set [12] concerns pyroglutamate-modified CD47 in A375 melanoma cells. Briefly: Analysis of αCD47-CC2C6 / αCD47-B6H12 immunoprecipitates of HA-tagged CD47. The format is cell-based, human. Particulars: untreated versus SEN177-treated cells, 10 μM SEN177 for 16 h. As to the method:
At the day of analysis, cells were starved in methionine- and cysteine-free medium for 1 h at 37° C. Subsequently, cells were pulse-labelled with 0.75 mCi/600 μL [^35S]Cys/[^35S]Met (PerkinElmer) for the indicated time period. Cells were washed with PBS to remove residual [^35S]Cys/[^35S]Met and then cultured in regular medium with 1 mM ‘cold’ methionine and cysteine for the indicated time period. Cells were lysed and [^35S]Cys/[^35S] incorporation was measured via TCA precipitation of aliquots of lysates on 3 MM Whatman paper and counting in a Perkin Elmer LSC 2800 ultima gold scintillation counter. Next, for pre-clearing and IP purposes, purified mouse IgG1 kappa isotype control (Biolegend, 400102), anti-human CD47 antibody B6H12.2 (Novus, NBP2-31106), and purified anti-human CD47 antibody CC2C6 (Biolegend, 323102) was bound to protein-G-coated Dynabeads (ThermoFisher Scientific) according to manufacturer's instructions. […] Next, immunoprecipitates were heated at 50° C. for 10 min with 2× Laemmli buffer and analyzed using a Novex NuPAGE Gel Electrophoresis System (Thermo Fisher Scientific). Gels were treated with 1 M Na salicylate pH 5.6 before drying and then analyzed on Fujifilm BAS-MP phosphor imager screens 4° C. Screens were analyzed on a lasser scanner Typhoon FLA 9500.

In data set [13] the test system is CD47 pyroglutamylation in HAP1 cells. Briefly: QPCTL inhibitor assay: CD47 pyroglutamylation (CC2C6 / 2D3 staining). The format is cell-based, human. The settings on record: 48 hours, 10-fold dilutions, maximum 500 μM. As to the method:
An equal volume of HAP1 (200,000/well), A375 (50,000/well) or RKO (100,000/well) cells was added and QPCTL and CD47 knockout cells were taken along in control wells.
After 48 hours incubation at 37 degrees, 5% CO2, cells were washed once with PBS before releasing with 100 μl TrypIE dissociation reagent per well and transfer to V-bottom 96-well plates (Greiner Bio-One) pre-filled with 100 μl FACS buffer (10% FCS/PBS). Cells were spun 3′ at 3000 rpm, washed once with FACS buffer and again spun 3′ at 3000 rpm. Next, cells were incubated for 2 hours at 4 degrees with a mix of 1:500 FITC-conjugated anti-human CD47 clone 2D3 and 1:500 Alexa647-conjugated anti-human CD47 clone CC2C6 for the pyroglutamylation assays. Alternatively, cells were incubated with 50 μl 1:50 recombinant SIRPα-human Fc fusion protein in FACS buffer for the SIRPα assays. For the SIRPα assays, two wash steps followed by spinning 3′ at 3000 rpm and resuspending the cells in FACS buffer before spinning a final time and resuspending and incubating the pellet for 1 hour at 4 degrees in 100 μl 1:100 APC-conjugated rabbit-anti-human antibody. Cells of both assay were spun down and washed twice with FACS buffer to remove unbound antibody. Cells were again spun down and taken up in 300 μl FACS buffer before analyzed on a FACSAria III using FACS Diva software (BS Biosciences). The median fluorescence intensity (MFI) of each sample was linearly transformed to scale between the MFIs of wildtype and CD47 knockout cells in case of the 2D3 antibody and the wildtype and QPCTL knockout cells in case of the CC2C6 antibody.

The target of data set [14] is T1, recombinant human isoQC (Homo sapiens, UniProt Q9NXS2).
T1 construct: enzymatically active region of human isoQC (S53-L382, Huang et al., JBC, 286, 12439-12449, 2011); GST with enterokinase site (N, cleaved yes); made in house; host or cells: E. coli, pET41(+) vector
T1 sequence (Q9NXS2 53-382): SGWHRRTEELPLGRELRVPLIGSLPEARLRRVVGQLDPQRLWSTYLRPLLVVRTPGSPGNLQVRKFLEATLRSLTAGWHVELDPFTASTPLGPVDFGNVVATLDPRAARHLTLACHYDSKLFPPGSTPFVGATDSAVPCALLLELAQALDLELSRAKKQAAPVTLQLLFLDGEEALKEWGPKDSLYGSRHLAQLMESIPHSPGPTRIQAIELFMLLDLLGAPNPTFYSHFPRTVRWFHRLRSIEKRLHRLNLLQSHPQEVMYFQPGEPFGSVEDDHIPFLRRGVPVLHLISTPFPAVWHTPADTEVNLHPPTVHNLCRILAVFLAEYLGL
Description: IsoQC assay (coupled H-Gln-AMC / pGAPase fluorescence assay). The format is biochemical. Particulars: 10 μM H-Gln-AMC, 1 hour at 37° C., maximum and ten- and hundredfold lower concentrations. The source says:
The Golgi luminal, enzymatically active region of human isoQC (S53-L382, Huang et al., JBC, 286, 12439-12449, 2011) was obtained by expression in E. coli of an N-terminally GST-Enterokinase, C-terminally 6× His tagged construct (“6× His” disclosed as SEQ ID NO: 15) in the pET41(+) vector and subsequent purification and enterokinase digestion. Absence of pyroglutamylating activity in an enzymatic dead variant that was cloned, expressed and purified in parallel ruled out that the purification strategy isolates any endogenously present pyroglutamylating activity.
Inhibition of isoQC activity was assessed by incubating 30 μl 50 mM Tris pH8.0 solutions containing 10 μM H-Gln-AMC (Bachem cat.no. 4003647.0100, dissolved in 25 mM HEPES), 1% DMSO and 750 pg/μl recombinant isoQC in the presence or absence of inhibitor for 1 hour at 37° C. A 5-minute incubation at 98° C. followed to stop the reaction and inactivate the enzyme. Next, 25 μl of the reaction was transferred to a 384-well plate containing 25 μl pGAPase enzyme (1:200 diluted in 50 mM Tris pH8.0, 10 mM Dithiothreitol (DTT), enzyme obtained from Qiagen, cat. no. 34342) and incubated for 10 minutes at 37° C. before reading the fluorescence using a SpectraMax Id3 platereader with excitation wavenlength set at 380 nm and emission at 450 nm. Readings were corrected by subtracting background signal from a control well containing no isoQC enzyme and subsequently normalized by dividing through the signal of a well containing enzyme but no inhibitor.

In the case of `COc1ccc(NC(=S)NCCCn2ccnc2)cc1OC` [PBD150], the “CC2C6 binding after withdrawal” value in data set [1] (HAP1 cells subsequently cultured 48 hrs without PBD150) is recorded as “restored to normal levels”. Also, in data set [1] (HAP1 cells, 72 hours, PBD150 1000 microM), the “CC2C6 bound to the surface” value was “decreased”. In data set [2], the 2D3 binding result is listed as “unchanged”, the CC2C6 binding entry is listed as “decreased” and the SIRPα-Fc binding result is recorded as “decreased”. Besides, the Ki in data set [3] was 60 nM.
In the case of `CCCOc1ccc([C@H]2CNC(=O)N2c2ccc3[nH]cnc3c2)cc1` [PQ912, (S)-1-(1H-benzo[d]imidazole-5-yl)-5-(4-propoxyphenyl)imidazolidin-2-one], the safety and tolerability result in data set [4] was “safe and well-tolerated”. Further, in [5], the “level of QPCT and QPCTL inhibition” value is “high level”.
Take `Cn1cnnc1C1CCN(c2ncccc2-c2ccc(F)nc2)CC1` [SEN177]: in data set [6], the “neutrophil-mediated lysis of tumor cells” value is listed as “synergized”. Moreover, the CD47 protein levels result in data set [7] was “unaltered”. Further, in data set [7] (versus untreated cells), the “Binding of SIRPα” value is reported as “significantly decreased”. For the same compound, the “lysis of tumor cells by murine immune cells” value in data set [8] is listed as “same effects”. In data set [9], the CD47 surface levels entry is “unaffected”. Also, the SIRPα-Fc staining result in data set [9] (8 out of 8 cell lines tested, same extent as in QPCTL deficient cells) is “reduced”. In addition, in data set [10], the “binding of SIRPα (mSIRPα-Fc)” value was “reduced” and the “total CD47 surface levels” value is reported as “without altering”. For the same compound, in data set [11], the SIRPα binding result was “did not further reduce”. Besides, the “pyroglutamate-modified CD47” value in data set [12] is given as “near-complete inhibition”.
With `O=C(C1=C(O)C(=O)N(c2ccc3[nH]cnc3c2)C1c1ccc(Cl)c(Cl)c1)C1CCCCC1` (centres unmarked) [compound 000015, 1-(1H-Benzoimidazol-5-yl)-4-cyclohexanecarbonyl-5-(3,4-dichloro-phenyl)-3-hydroxy-1,5-dihydro-pyrrol-2-one], the “pE-CD47 signal (antibody clone CC2C6)” value in data set [13] is on record as “did not show convincing reactivity”. In addition, the isoQC activity result in data set [14] is “did show some activity”.
On to `O=C(C1=C(O)C(=O)N(c2ccc3[nH]cnc3c2)C1c1cccc(F)c1F)c1ccccc1` (centres unmarked) [compound 000033, 1-(1H-benzo[d]imidazol-5-yl)-4-benzoyl-5-(2,3-difluorophenyl)-3-hydroxy-1H-pyrrol-2(5H)-one], for which, in data set [13], the “pE-CD47 signal (antibody clone CC2C6)” value is reported as “did not show convincing reactivity”. For the same compound, the isoQC activity result in [14] is listed as “did show some activity”.
In the same order, the values of `Cc1ccc(C2C(=S)NC(=O)N2c2ccc3[nH]cnc3c2)c(F)c1F` (centres unmarked) [compound 000040, 1-(1H-benzo[d]imidazol-5-yl)-5-(2,3-difluoro-4-methylphenyl)-4-thioxoimidazolidin-2-one] are “did not show convincing reactivity” and “did show some activity”.
With `Cc1ccc(C2C(c3ccc(O)cc3)=C(O)C(=O)N2CCCn2ccnc2)cc1` (centres unmarked) [compound 000046, 3-Hydroxy-4-(4-hydroxy-phenyl)-1-(3-imidazol-1-yl-propyl)-5-p-tolyl-1,5-dihydro-pyrrol-2-one], the “pE-CD47 signal (antibody clone CC2C6)” value in [13] is reported as “did not show convincing reactivity”. Besides, the isoQC activity entry in data set [14] is “did show some activity”.

In general, Ki refers to the equilibrium dissociation constant of an inhibitor or competing ligand from its target.

The record behind these values is patent publication US20190365717A1, “TREATING PATHOLOGICAL CONDITIONS BY DIRECT AND INDIRECT TARGETING OF SIRPA-CD47 INTERACTION” (STICHTING HET NEDERLANDS KANKER INSTITUUT-ANTONI VAN …, priority 2017, published 2019).
